# According to patent EP2727627B1, “Oral and dental care and cleaning agents with Tocopherol acetate” (priority 2012, dated 2014):
# What was measured:
# Gingiva Fibroblasten [1] = test: ATP determination with ATPLite-M assay (cell energy content); format: cell-based
# Source text: ATP (Adenosintriphosphat) ist die universelle Speicherform für chemische Energie in Zellen. Die ATP-Bestimmung erfolgt mit Hilfe des ATPLiteTM-M Assays (Packard). Das Testprinzip dieses Assays beruht darauf, dass die Luciferase von Photinus pyralis eine Reaktion katalysiert, bei der in Gegenwart von ATP D-Luciferin in Oxyluciferin umgewandelt wird. Bei dieser Reaktion wird grünes Licht emittiert, das mit einem Luminometer gemessen werden kann. Das emittierte Biolumineszenzlicht ist proportional zur Menge des vorhandenen ATP. Zur Bestimmung der ATP-Aktivität in Gingiva Fibroblasten werden diese in geeigneter Weise unter Erhalt ihrer spezifischen Eigenschaften vorkultiviert (DE10162814) und in eine 96well-Zellkulturschale überführt. Die Behandlung mit dem Substanzgemisch erfolgte über 24 Stunden gegen eine unbehandelte Kontrolle. Anschließend wurden die Zellen mit jeweils 50 µl/Kavität eines im Testkit enthaltenen Lysepuffer für 5 min auf einem Schüttler lysiert. Danach wurden die Zellen für weitere 5 min mit jeweils 50 µl/Kavität mit der mitgelieferten Substratlösung auf dem Schüttler inkubiert und anschließend das Reaktionsgemisch in eine schwarze Mikrotiterplatte überführt. Nach einer Inkubationszeit von 10 min in der Dunkelheit erfolgte die Messung. Tabelle 2: Einfluss von Tocopherylacetat auf den Zellenergieinhalt
# Gingiva Fibroblasten [2] = test: WST-1 vitality test (metabolic activity); format: cell-based; details: for Vitalität [%] Mittelwert: 24 h incubation, untreated control = 100 %, mean of 6
# Source text: Als Maß für die Vitalität kann die metabolische Aktivität von Gingiva Fibroblasten nach Inkubation mit Tocopherylacetat gemessen werden. Das chromogene Tetrazoliumsalz WST-1 wird durch stoffwechselaktive Succinatdehydrogenasen lebender Zellen reduktiv aufgespalten, wobei ein wasserlösliches Formazansalz entsteht. Durch UV/VIS-spektroskopische Vermessung der Absorptionsintensität kann die Konzentration der intermediär gebildeten Formazansalze bestimmt werden, welche in Korrelation zur Aktivität der Succinatdehydrogenase steht.
# (§1) Der WST-Vitalitätstest wurde in einer 96-Well Mikrotiterplatte in 6-fach Bestimmung durchgeführt. Dafür wurde pro Well eine definierte Zellzahl von Gingiva Fibroplasten in einem Volumen von 50 µl (microliter) ausgesät. Anschließend wurde Tocopherylacetat in absteigenden Konzentrationen dazugegeben. Nach 24 Stunden Inkubation wurden 10 µl des in Medium verdünnten Tetrazolium-Salzes WST-1 zu jedem Ansatz pipettiert. Es folgte eine dreistündige Inkubation bei 37°C und 5 % Kohlenstoffdioxid, bevor die Absorption bei einer Wellenlänge von 450 nm (Referenzwellenlänge 650 nm) in einem Spektrometer (ELISA-Reader) gemessen wurde. Die Werte der unbehandelten Kontrolle wurden gleich 100 % gesetzt und die Werte der behandelten Proben darauf bezogen.
# Für jede Tocopherylacetat-Konzentration wurde eine 6-fach Bestimmung durchgeführt, aus den 6 Messwerten wurde jeweils der Mittelwert gebildet.
# as §1, with “37 °C” for “37°C”
# [3] = low concentrations, Gingiva-Zellen, result in words
# [4] = Fibroblast, 24 h, read-out: Vitalität [%] Mittelwert
smiles,measurement,setting,value
CC(=O)Oc1c(C)c(C)c2c(c1C)CCC(C)(CCCC(C)CCCC(C)CCCC(C)C)O2 (stereo not shown) [Tocopherylacetat],activity at 0.01 %,"Gingiva Fibroblasten [1]; Fibroblast, Konz. 0,01 Gew.-%, 24 h treatment, versus untreated control (100,0), read-out: ATP-Gehalt [%] Mittelwert",128%
same,activity at 0.0025 %,"Gingiva Fibroblasten [1]; Fibroblast, Konz. 0,0025 Gew.-%, 24 h treatment, versus untreated control (100,0), read-out: ATP-Gehalt [%] Mittelwert",125%
same,activity at 0.005 %,"Gingiva Fibroblasten [1]; Fibroblast, Konz. 0,005 Gew.-%, 24 h treatment, versus untreated control (100,0), read-out: ATP-Gehalt [%] Mittelwert",139%
same,ATP-Gehalt,Gingiva Fibroblasten [1]; [3],signifikanten Steigerung des ATP-Gehaltes
same,viability at 0.0005 %,Gingiva Fibroblasten [2]; [4],133%
same,viability at 0.001 %,Gingiva Fibroblasten [2]; [4],141%
same,viability at 0.005 %,Gingiva Fibroblasten [2]; [4],138%
same,viability at 0.01 %,Gingiva Fibroblasten [2]; [4],150%
same,Vitalität [%] Mittelwert,"Gingiva Fibroblasten [2]; Konz. 0,01 Gew.-%","150,5%"
same,Vitalität [%] Mittelwert,"Gingiva Fibroblasten [2]; Konz. 0,0005 Gew.-%","132,9%"
same,Vitalität [%] Mittelwert,"Gingiva Fibroblasten [2]; Konz. 0,001 Gew.-%","141,4%"
same,Vitalität [%] Mittelwert,"Gingiva Fibroblasten [2]; Konz. 0,005 Gew.-%","137,7%"
same,Vitalität,Gingiva Fibroblasten [2]; [3],signifikanten Steigerung der Vitalität
